Measurements taken from ChEMBL document CHEMBL5380791, “Modular Biomimetic Strategy Enabled Discovery of Simplified Pseudo-Natural Macrocyclic P-Glycoprotein Inhibitors Capable of Overcoming Multidrug Resistance” (J Med Chem, 2023).
The source made the active and inactive calls. The rule behind the calls is not given here.

Assays:
[1] = AUClast in CD-1 mouse at 25 mg/kg, ip; type: ADME, organism-based; parameters: dose 25 mg/kg, route ip; details: in vivo
KBv200 [2] = assay: Antitumor activity against human KBv200 cells xenografted in Balb/cA nude mouse assessed as mean tumor volume at 50 mg/kg, ip administered as single dose and measured on day 0; type: functional
[3] = Tmax in CD-1 mouse at 30 mg/kg, po; type: ADME, organism-based; details: in vivo
NCI/ADR-RES = assay: Reversal of vinorelbine resistance in human NCI/ADR-RES cells assessed as reduction in cell viability incubated for 72 hrs in presence of vinorelbine (reference value: 6125.7+/-3267.7 nM); type: functional, cell-based
KBv200 [4] = assay: Antitumor activity against human KBv200 cells xenografted in Balb/cA nude mouse assessed as T/C ratio at 50 mg/kg, ip qd administered for 13 days in presence of vinorelbine; type: functional; details: time 13 day
KBv200 [5] = assay: Antitumor activity against human KBv200 cells xenografted in Balb/cA nude mouse assessed as tumor growth inhibition at 50 mg/kg, ip qd administered for 13 days in presence of vinorelbine; type: functional; details: KBv200, 312 h, time 13 day
[6] = Toxicity in Balb/cA nude mouse xenografted with human KBv200 cells assessed as changes in body weight at 25 mg/kg, ip qd administered for 13 days in presence of vinorelbine; type: organism-based; details: in vivo, 312 h, time 13 day
[7] = AUCinf in CD-1 mouse at 3 mg/kg, iv; type: ADME, organism-based; parameters: dose 3 mg/kg, route iv; details: in vivo
[8] = Half life in CD-1 mouse at 25 mg/kg, ip; type: ADME, organism-based; details: in vivo
[9] = Cytotoxicity against human L02 cells assessed as reduction in cell viability incubated for 48 hrs by CCK-8 assay; type: toxicity, cell-based
[10] = Toxicity in Balb/cA nude mouse xenografted with human KBv200 cells assessed as changes in body weight at 50 mg/kg, ip qd administered for 13 days in presence of vinorelbine; type: organism-based; details: in vivo, 312 h, time 13 day
KBv200 [11] = assay: Antitumor activity against human KBv200 cells xenografted in Balb/cA nude mouse assessed as T/C ratio at 25 mg/kg, ip qd administered for 13 days in presence of vinorelbine; type: functional; details: time 13 day
KB = assay: Reversal of vinorelbine resistance in human KB cells assessed as reduction in cell viability incubated for 72 hrs in presence of vinorelbine (reference value: 7.4+/-2.2 nM); type: functional, cell-based
[12] = Toxicity in Balb/cA nude mouse xenografted with human KBv200 cells assessed as mortality at 50 mg/kg, ip qd administered for 13 days in presence of vinorelbine; type: organism-based; details: in vivo, 312 h, time 13 day
[13] = target: ATP-dependent translocase ABCB1 (Homo sapiens, UniProt P08183); assay: Inhibition of P-gp in human KBv200 cells assessed as induction of conformation change by measuring increase in UIC-2 binding level at 50 uM incubated for 10 mins by UIC-2 reactivity shift assay; type: cell-based; details: kbv200, 10 min
[14] = AUCinf in CD-1 mouse at 30 mg/kg, po; type: ADME, organism-based; parameters: dose 30 mg/kg, route po; details: in vivo
KBv200 [15] = assay: Antitumor activity against human KBv200 cells xenografted in Balb/cA nude mouse assessed as tumor growth inhibition at 50 mg/kg, ip qd administered for 13 days; type: functional; details: KBv200, 312 h, time 13 day
K562 = assay: Reversal of vinorelbine resistance in human K562 cells assessed as reduction in cell viability incubated for 72 hrs in presence of vinorelbine (reference value: 5.9+/-0.2 nM); type: functional, cell-based; details: K562, 72 h
KBv200 [16] = assay: Downregulation of P-gp mRNA expression level in human KBV200 cells by qRT-PCR analysis; type: functional, cell-based
[17] = Cmax in CD-1 mouse at 25 mg/kg, ip; type: ADME, organism-based; parameters: dose 25 mg/kg, route ip; details: in vivo
KBv200 [18] = assay: Reversal of paclitaxel resistance in human KBv200 cells assessed as reduction in cell viability incubated for 72 hrs in presence of paclitaxel (reference value: 392.9+/-196.5 nM); type: functional, cell-based; details: KBv200, 72 h
[19] = Bioavailability in CD-1 mouse at 25 mg/kg, ip; type: ADME, organism-based; details: in vivo
[20] = Half life in CD-1 mouse at 3 mg/kg, iv; type: ADME, organism-based; details: in vivo
[21] = Half life in CD-1 mouse at 30 mg/kg, po; type: ADME, organism-based; details: in vivo
KBv200 [22] = assay: Antitumor activity against human KBv200 cells xenografted in Balb/cA nude mouse assessed as T/C ratio at 50 mg/kg, ip qd administered for 13 days; type: functional; details: time 13 day
[23] = Tmax in CD-1 mouse at 25 mg/kg, ip; type: ADME, organism-based; details: in vivo
[24] = Toxicity in Balb/cA nude mouse xenografted with human KBv200 cells assessed as mortality at 25 mg/kg, ip qd administered for 13 days in presence of vinorelbine; type: organism-based; details: in vivo, 312 h, time 13 day
OVCAR-8 = assay: Reversal of vinorelbine resistance in human OVCAR-8 cells assessed as reduction in cell viability incubated for 72 hrs in presence of vinorelbine (reference value: 16.2+/-4.7 nM); type: functional, cell-based; details: OVCAR-8, 72 h
[25] = Toxicity in Balb/cA nude mouse xenografted with human KBv200 cells assessed as changes in body weight at 50 mg/kg, ip qd administered for 13 days; type: organism-based; details: in vivo, 312 h, time 13 day
KBv200 [26] = assay: Reversal of vinorelbine resistance in human KBv200 cells assessed as reduction in cell viability incubated for 72 hrs in presence of vinorelbine (reference value: 224 to 228.30 nM); type: functional, cell-based; details: KBv200, 72 h, read-out: IC50
KBv200 [27] = assay: Antitumor activity against human KBv200 cells xenografted in Balb/cA nude mouse assessed as tumor growth inhibition at 25 mg/kg, ip qd administered for 13 days in presence of vinorelbine; type: functional; details: KBv200, 312 h, time 13 day
KBv200 [28] = assay: Antitumor activity against human KBv200 cells xenografted in Balb/cA nude mouse assessed as mean tumor volume at 50 mg/kg, ip qd administered for 13 days; type: functional; details: time 13 day
[29] = AUClast in CD-1 mouse at 3 mg/kg, iv; type: ADME, organism-based; parameters: dose 3 mg/kg, route iv; details: in vivo
[30] = AUClast in CD-1 mouse at 30 mg/kg, po; type: ADME, organism-based; parameters: dose 30 mg/kg, route po; details: in vivo
[31] = Clearance in CD-1 mouse at 3 mg/kg, iv; type: ADME, organism-based; details: in vivo
K562/Adr = assay: Reversal of vinorelbine resistance in human K562/Adr cells assessed as reduction in cell viability incubated for 72 hrs in presence of vinorelbine (reference value: 7320.6+/-2115.2 nM); type: functional, cell-based
KBv200 [32] = assay: Reversal fold, ratio of vinorelbine IC50 for cytotoxicity against human KBv200 cells over test compound IC50 for reversal of vinorelbine resistance in human KBv200 cells; type: functional
KBv200 [33] = assay: Antitumor activity against human KBv200 cells xenografted in Balb/cA nude mouse assessed as mean tumor volume at 25 mg/kg, ip administered as single dose and measured on day 0 in presence of vinorelbine; type: functional
KBv200 [34] = assay: Reversal of adriamycin resistance in human KBv200 cells assessed as reduction in cell viability incubated for 72 hrs in presence of adriamycin (reference value: 1291.2+/-308.9 nM); type: functional, cell-based; details: KBv200, 72 h
[35] = Oral bioavailability in CD-1 mouse at 30 mg/kg; type: ADME, organism-based; details: in vivo
[36] = Cytotoxicity against human HEK293T cells assessed as reduction in cell viability incubated for 48 hrs by CCK-8 assay; type: toxicity, cell-based, HEK-293T
[37] = AUCinf in CD-1 mouse at 25 mg/kg, ip; type: ADME, organism-based; parameters: dose 25 mg/kg, route ip; details: in vivo
KBv200 [38] = assay: Antitumor activity against human KBv200 cells xenografted in Balb/cA nude mouse assessed as mean tumor volume at 50 mg/kg, ip qd administered for 13 days in presence of vinorelbine; type: functional; details: time 13 day
[39] = Cmax in CD-1 mouse at 30 mg/kg, po; type: ADME, organism-based; parameters: dose 30 mg/kg, route po; details: in vivo
[40] = Toxicity in Balb/cA nude mouse xenografted with human KBv200 cells assessed as mortality at 50 mg/kg, ip qd administered for 13 days; type: organism-based; details: in vivo, 312 h, time 13 day
KBv200 [41] = assay: Antitumor activity against human KBv200 cells xenografted in Balb/cA nude mouse assessed as mean tumor volume at 50 mg/kg, ip administered as single dose and measured on day 0 in presence of vinorelbine; type: functional
KBv200 [42] = assay: Antitumor activity against human KBv200 cells xenografted in Balb/cA nude mouse assessed as mean tumor volume at 25 mg/kg, ip qd administered for 13 days in presence of vinorelbine; type: functional; details: time 13 day

ATP-dependent translocase ABCB1, sequence (P08183 whole entry): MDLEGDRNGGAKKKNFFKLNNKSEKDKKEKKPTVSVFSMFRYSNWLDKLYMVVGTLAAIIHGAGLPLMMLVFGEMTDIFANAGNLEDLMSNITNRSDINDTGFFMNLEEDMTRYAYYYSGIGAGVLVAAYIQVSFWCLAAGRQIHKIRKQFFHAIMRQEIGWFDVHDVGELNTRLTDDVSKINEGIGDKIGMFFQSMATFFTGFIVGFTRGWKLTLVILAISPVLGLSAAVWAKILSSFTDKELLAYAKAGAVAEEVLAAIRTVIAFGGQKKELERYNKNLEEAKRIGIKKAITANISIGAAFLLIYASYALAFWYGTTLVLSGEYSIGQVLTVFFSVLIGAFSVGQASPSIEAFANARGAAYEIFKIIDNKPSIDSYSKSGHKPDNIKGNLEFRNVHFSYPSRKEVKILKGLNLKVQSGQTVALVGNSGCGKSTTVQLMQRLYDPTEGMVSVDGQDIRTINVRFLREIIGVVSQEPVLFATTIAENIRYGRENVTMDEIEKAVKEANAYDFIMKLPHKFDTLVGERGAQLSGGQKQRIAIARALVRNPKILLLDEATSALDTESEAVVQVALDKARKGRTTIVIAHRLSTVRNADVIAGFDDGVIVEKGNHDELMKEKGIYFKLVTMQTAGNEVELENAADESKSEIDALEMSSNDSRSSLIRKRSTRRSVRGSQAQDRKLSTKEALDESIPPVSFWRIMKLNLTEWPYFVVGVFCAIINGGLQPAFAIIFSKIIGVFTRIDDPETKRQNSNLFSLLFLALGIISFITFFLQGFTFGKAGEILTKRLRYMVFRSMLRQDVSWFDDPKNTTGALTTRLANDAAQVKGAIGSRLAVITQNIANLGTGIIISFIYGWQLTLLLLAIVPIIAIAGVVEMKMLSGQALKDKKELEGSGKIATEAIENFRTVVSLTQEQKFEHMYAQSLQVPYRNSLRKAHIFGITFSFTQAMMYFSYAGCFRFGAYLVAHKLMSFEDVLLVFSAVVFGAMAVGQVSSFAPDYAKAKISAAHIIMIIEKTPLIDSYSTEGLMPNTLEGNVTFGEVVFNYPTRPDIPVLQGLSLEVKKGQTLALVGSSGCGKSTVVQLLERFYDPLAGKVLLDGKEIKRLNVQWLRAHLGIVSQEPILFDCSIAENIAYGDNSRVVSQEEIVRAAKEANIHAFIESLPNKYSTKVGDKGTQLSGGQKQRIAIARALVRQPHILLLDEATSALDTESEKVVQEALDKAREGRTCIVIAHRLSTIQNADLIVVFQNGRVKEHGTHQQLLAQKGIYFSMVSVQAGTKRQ

## O=C1CCCCCCCCCCCNC(=O)[C@@H](Cc2ccccc2)NC(=O)/C(c2cccc3ccccc23)=C\C=C(\c2ccccc2)CN1
[1]
  AUC(0-t): 17000 ng·h/mL
KBv200 [2]
  Activity: 119.8 mm3
[3]
  Tmax: 3 h
NCI/ADR-RES
  IC50: 116 nM
KBv200 [4]
  T/C: 48%
KBv200 [5]
  inhibition in vivo at 50 mg/kg: 52%
[6]
  Activity: Non-Toxic
[7]
  AUC(0-inf): 4350 ng·h/mL
[8]
  half-life: 11.9 h
[9]
  IC50 at 48 h: > 100000 nM
[10]
  Activity: Non-Toxic
KBv200 [11]
  T/C: 65%
KB
  IC50: 0.7 nM
[12]
  Activity: Non-Toxic
[13]
  Activity: Active
[14]
  AUC(0-inf): 9490 ng·h/mL
KBv200 [15]
  inhibition in vivo at 50 mg/kg: 19%
K562
  IC50: 0.8 nM
KBv200 [16]
  Activity: inactive
[17]
  Cmax: 1930 ng/mL
KBv200 [18]
  IC50: 0.9 nM
[19]
  bioavailability: 47.3%
[20]
  half-life: 2.08 h
[21]
  half-life: 2.56 h
KBv200 [22]
  T/C: 113%
[23]
  Tmax: 2.67 h
[24]
  Activity: Non-Toxic
OVCAR-8
  IC50: 4.6 nM
[25]
  Activity: Non-Toxic
KBv200 [26]
  IC50: 0.02 nM
KBv200 [27]
  inhibition in vivo at 25 mg/kg: 35%
KBv200 [28]
  Activity: 1703.9 mm3
[29]
  AUC(0-t): 4320 ng·h/mL
[30]
  AUC(0-t): 9470 ng·h/mL
[31]
  clearance: 11.9 mL/min/kg
K562/Adr
  IC50: 75.9 nM
KBv200 [32]
  Ratio IC50: 432
KBv200 [33]
  Activity: 122 mm3
KBv200 [34]
  IC50: 37.5 nM
[35]
  bioavailability: 21.9%
[36]
  IC50 at 48 h: > 100000 nM
[37]
  AUC(0-inf): 20600 ng·h/mL
KBv200 [38]
  Activity: 1059.5 mm3
[39]
  Cmax: 2670 ng/mL
[40]
  Activity: Non-Toxic
KBv200 [41]
  Activity: 121.6 mm3
KBv200 [42]
  Activity: 1384 mm3
